From patent US20250195513A1, “DEGRADATION OF IRAK4 BY CONJUGATION OF IRAK4 INHIBITORS WITH E3 LIGASE LIGAND AND METHODS OF USE” (BeiGene, Ltd., priority 2022, published 2025)
Read-outs that look alike come from different tables or passages of the source.

Molecular target: T1, IRAK4 (Homo sapiens, UniProt Q9NWZ3)
T1 construct: endogenous in cells; host or cells: Karpas299
T1 sequence (Q9NWZ3 1-460): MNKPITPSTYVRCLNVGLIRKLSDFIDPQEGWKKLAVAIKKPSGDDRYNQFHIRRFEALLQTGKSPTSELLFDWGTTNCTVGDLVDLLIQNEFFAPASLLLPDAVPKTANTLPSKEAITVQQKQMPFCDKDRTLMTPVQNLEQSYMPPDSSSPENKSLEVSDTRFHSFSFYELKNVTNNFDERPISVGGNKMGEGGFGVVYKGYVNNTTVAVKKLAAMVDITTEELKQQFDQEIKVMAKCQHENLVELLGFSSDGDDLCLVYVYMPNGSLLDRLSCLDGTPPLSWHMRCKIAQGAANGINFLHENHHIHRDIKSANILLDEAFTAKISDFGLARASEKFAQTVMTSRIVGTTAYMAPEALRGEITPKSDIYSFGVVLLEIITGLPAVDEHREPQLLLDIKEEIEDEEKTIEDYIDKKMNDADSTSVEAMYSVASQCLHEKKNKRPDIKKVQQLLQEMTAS
Assay: IRAK4 Degradation Assay (Karpas299, HTRF/TR-FRET)
Assay type: cell-based
Description: IRAK4 degradation was measured using a TR-FRET-based method (Degorce, François, et al. Current chemical genomics. 2009, 3: 22). Karpas299 maintained in RPMI 1640 medium (Thermo Scientific) supplemented with 20% fetal bovine serum (FBS, Thermo Scientific), 100 units/mL penicillin and 0.1 mg/mL streptomycin (Thermo Scientific) were seeded into 96-well plates at the density of 0.2 million cells per well and then treated with a series dilution of compounds. After 24 hours or 5 hours treatment, cells were pelleted via centrifugation and 40 μL lysis buffer (Cisbio) was added to each well after removal of the supernatant. Plates were then incubated at room temperature with shaking for 30 minutes. A total of 16 μL of cell lysates from each well of a 96-well plate was transferred to a 384-well white assay plate. IRAK4 level was quantitated using the HTRF kit as described by the manufacturer manual (Cisbio). FRET signals were measured using a PHERAstar FSX reader (BMG Labtech).
After treatment, add HTRF lysis buffer to each well; seal the plate and incubate 1 hour at room temperature on a plate shaker; Once the cells are lysed, 16 μL of cell lysate are transferred to a PE 384-well HTRF detection plate; 4 μL of pre-mixed HTRF antibodies are added to each well; Cover the plate with a plate sealer, spin 1000 rpm for 1 min, Incubate overnight at room temperature; Read on BMG PheraStar with HTRF protocol (337 nm-665 nm-620 nm).
The inhibition (degradation) percentage of the compound was calculated by the following equation: […]
The IC50 (DC50) value of a compound can be obtained by fitting the following equation
Wherein, X and Y are known values, and IC50, Hillslope, Top and Bottom are the parameters obtained by fitting with software. Y is the inhibition percentage (calculated from the equation), X is the concentration of the compound; IC50 is the concentration of the compound when the […] is reached. The smaller the IC50 value is, the stronger the inhibitory ability of the compound is. Vice versa, the higher the IC50 value is, the weaker the ability the inhibitory ability of the compound is; Hillslope represents the slope of the fitted curve, generally around 1 *; Bottom represents the minimum value of the curve obtained by data fitting, which is generally 0%±20%; Top represents the maximum value of the curve obtained by data fitting, which is generally 100%±20%. The experimental data were fitted by calculating and analyzing with Dotmatics data analysis software.

[1] = Karpas-299 cells, 24 h treatment, maximum percentage of degradation, read-out: IRAK4 in Karpas-299 (24 h) Dmax (%)
[2] = Karpas-299 cells, 24 h treatment, read-out: IRAK4 in Karpas-299 (24 h) DC50
[3] = Karpas-299 cells, 5 h treatment, maximum percentage of degradation, read-out: IRAK4 in Karpas-299 (5 h) Dmax (%)
[4] = Karpas-299 cells, 5 h treatment, read-out: IRAK4 in Karpas-299 (5 h) DC50

| Dmax [1] [%] | DC50 [2] [nM] | Dmax [3] [%] | DC50 [4] [nM] | DC50 (Degradation (Karpas-299), comparison table, Linker Type A, read-out: Compound (Linker Type A) DC50) [nM] | Dmax (Degradation (Karpas-299), comparison table, Linker Type A, read-out: Compound (Linker Type A) Dmax (%)) [%] | Structure (SMILES) |
| --- | --- | --- | --- | --- | --- | --- |
| 98 | 2.8 |  |  |  |  | O=C1CCN(c2ccc(N3CC(C(=O)N4CCN([C@H]5CC[C@H](n6cc(NC(=O)c7coc(-c8ccnc(NCC9CC9)c8)n7)c(C(F)F)n6)CC5)CC4)C3)cc2)C(=O)N1 [Example 24, 2-(2-((cyclopropylmethyl)amino)pyridin-4-yl)-N-(3-(difluoromethyl)-1-((1r,4r)-4-(4-(1-(4-(2,4-dioxotetrahydropyrimidin-1(2H)-yl)phenyl)azetidine-3-carbonyl)piperazin-1-yl)cyclohexyl)-1H-pyrazol-4-yl)oxazole-4-carboxamide] |
| 95 | 5.2 |  |  |  |  | CC(C)c1cc(-c2nc(C(=O)Nc3cn([C@H]4CC[C@H](N5CCN(C(=O)[C@@H]6CCN(c7cc(F)c([C@H]8CCC(=O)NC8=O)c(F)c7)C6)CC5)CC4)nc3C(F)F)co2)ccn1 [Example 85, N-(3-(difluoromethyl)-1-((1R,4r)-4-(4-((R)-1-(4-((R)-2,6-dioxopiperidin-3-yl)-3,5-difluorophenyl)pyrrolidine-3-carbonyl)piperazin-1-yl)cyclohexyl)-1H-pyrazol-4-yl)-2-(2-isopropylpyridin-4-yl)oxazole-4-carboxamide] |
| 87 | 16 |  |  |  |  | CC(C)(O)c1cc2nn([C@H]3CC[C@H](N4CCN([C@H]5CCN(c6ccc(N7CCC(=O)NC7=O)cc6)C5)CC4)CC3)cc2cc1NC(=O)c1ccc2cc(C#N)cnn12 [Example 295, 3-cyano-N-(2-((1S,4r)-4-(4-((S)-1-(4-(2,4-dioxotetrahydropyrimidin-1(2H)-yl)phenyl)pyrrolidin-3-yl)piperazin-1-yl)cyclohexyl)-6-(2-hydroxypropan-2-yl)-2H-indazol-5-yl)pyrrolo[1,2-b]pyridazine-7-carboxamide] |
| 96 | 4.8 |  |  |  |  | CC(C)(O)c1cc2nn(C3CCN([C@H]4CCN(CC5CN(c6cc(F)c([C@H]7CCC(=O)NC7=O)c(F)c6)C5)CC4(F)F)CC3)cc2cc1NC(=O)c1ccc2cc(C#N)cnn12 [Example 197, 3-cyano-N-(2-((S)-1′-((1-(4-((R)-2,6-dioxopiperidin-3-yl)-3,5-difluorophenyl)azetidin-3-yl)methyl)-3′,3′-difluoro-[1,4′-bipiperidin]-4-yl)-6-(2-hydroxypropan-2-yl)-2H-indazol-5-yl)pyrrolo[1,2-b]pyridazine-7-carboxamide] |
| 25 | > 1000 |  |  |  |  | CC(C)(O)c1cc2nn([C@H]3CC[C@H](N4CCN(CCc5cc(F)c([C@H]6CCC(=O)NC6=O)c(F)c5)CC4)CC3)cc2cc1NC(=O)c1ccn2cc(C#N)cnc12 [Example 413, 3-cyano-N-(2-((1R,4r)-4-(4-(4-((R)-2,6-dioxopiperidin-3-yl)-3,5-difluorophenethyl)piperazin-1-yl)cyclohexyl)-6-(2-hydroxypropan-2-yl)-2H-indazol-5-yl)pyrrolo[1,2-a]pyrimidine-8-carboxamide] |
| 96 | 5 | 86 | 24 |  |  | O=C1CCN(c2c(F)cc(N3CC(C(=O)N4CCN([C@H]5CC[C@H](n6cc(NC(=O)c7cnn(-c8ccnc(NCC9CC9)c8)n7)c(C(F)F)n6)CC5)CC4)C3)cc2F)C(=O)N1 [Example 61, 2-(2-((cyclopropylmethyl)amino)pyridin-4-yl)-N-(3-(difluoromethyl)-1-((1r,4r)-4-(4-(1-(4-(2,4-dioxotetrahydropyrimidin-1(2H)-yl)-3,5-difluorophenyl)azetidine-3-carbonyl)piperazin-1-yl)cyclohexyl)-1H-pyrazol-4-yl)-2H-1,2,3-triazole-4-carboxamide] |
| 95 | 3.8 |  |  |  |  | CC(C)(O)c1cc2nn(C3CCN(C4CCN(C(=O)[C@H]5CCN(c6ccc(N7CCC(=O)NC7=O)cc6)C5)CC4)CC3)cc2cc1NC(=O)c1cccc(C(F)(F)F)n1 [Example 163, (S)—N-(2-(1′-(1-(4-(2,4-dioxotetrahydropyrimidin-1(2H)-yl)phenyl)pyrrolidine-3-carbonyl)-[1,4′-bipiperidin]-4-yl)-6-(2-hydroxypropan-2-yl)-2H-indazol-5-yl)-6-(trifluoromethyl)picolinamide] |
| 96 | 2.6 |  |  |  |  | NC(=O)c1nn(-c2ccc(N3CCN(C(=O)[C@@H]4CCN(c5cc(F)c([C@H]6CCC(=O)NC6=O)c(F)c5)C4)CC3)nc2)cc1NC(=O)c1coc(-c2ccnc(NCC(F)(F)F)c2)n1 [Example 166, N-(3-carbamoyl-1-(6-(4-((R)-1-(4-((R)-2,6-dioxopiperidin-3-yl)-3,5-difluorophenyl)pyrrolidine-3-carbonyl)piperazin-1-yl)pyridin-3-yl)-1H-pyrazol-4-yl)-2-(2-((2,2,2-trifluoroethyl)amino)pyridin-4-yl)oxazole-4-carboxamide] |
| 95 | 3.2 | 76 | 5.3 |  |  | Cc1cc(-c2nc(C(=O)Nc3cn(-c4ccc(N5CCN(C(=O)[C@@H]6CCN(c7cc(F)c([C@H]8CCC(=O)NC8=O)c(F)c7)C6)CC5)nc4)nc3C(N)=O)co2)ccn1 [Example 30, N-(3-carbamoyl-1-(6-(4-((R)-1-(4-((R)-2,6-dioxopiperidin-3-yl)-3,5-difluorophenyl)pyrrolidine-3-carbonyl)piperazin-1-yl)pyridin-3-yl)-1H-pyrazol-4-yl)-2-(2-methylpyridin-4-yl)oxazole-4-carboxamide] |
| 96 | 2.3 |  |  |  |  | CC(C)(O)c1cc2nn(C3CCN([C@@H]4CCN(C(=O)C5CN(c6cc(F)c([C@H]7CCC(=O)NC7=O)c(F)c6)C5)CC4(F)F)CC3)cc2cc1NC(=O)c1ccc2cc(C#N)cnn12 [Example 288, 3-cyano-N-(2-((R)-1′-(1-(4-((R)-2,6-dioxopiperidin-3-yl)-3,5-difluorophenyl)azetidine-3-carbonyl)-3′,3′-difluoro-[1,4′-bipiperidin]-4-yl)-6-(2-hydroxypropan-2-yl)-2H-indazol-5-yl)pyrrolo[1,2-b]pyridazine-7-carboxamide] |
| 85 | 2.8 |  |  |  |  | CC(C)(O)c1cc2nn(C3CCN(C4CCN(C(=O)[C@@H]5CCN(c6cc(F)c([C@H]7CCC(=O)NC7=O)c(F)c6)C5)CC4)CC3)cc2cc1NC(=O)c1cccn(C2CC2)c1=O [Example 118, 1-cyclopropyl-N-(2-(1′-((R)-1-(4-((R)-2,6-dioxopiperidin-3-yl)-3,5-difluorophenyl)pyrrolidine-3-carbonyl)-[1,4′-bipiperidin]-4-yl)-6-(2-hydroxypropan-2-yl)-2H-indazol-5-yl)-2-oxo-1,2-dihydropyridine-3-carboxamide] |
| 46 | > 10000 |  |  | > 10000 | 46 | O=C1CC[C@H](c2c(F)cc(CCN3CCN(C[C@H]4CC[C@H](n5cc(NC(=O)c6coc(-c7ccnc(NCC(F)(F)F)c7)n6)c(C(F)F)n5)CC4)CC3)cc2F)C(=O)N1 [Example 1, N-(3-(difluoromethyl)-1-((1R,4r)-4-((4-(4-((R)-2,6-dioxopiperidin-3-yl)-3,5-difluorophenethyl)piperazin-1-yl)methyl)cyclohexyl)-1H-pyrazol-4-yl)-2-(2-((2,2,2-trifluoroethyl)amino)pyridin-4-yl)oxazole-4-carboxamide] |
